Results: PubChem BioAssay AID1918999 (Molecular Pharmacology Branch, DTP, NCI, 2023)

System: 556581-035-R-J1-PDC complex spheroid growth
Experiment: Anticancer human tumor 556581-035-R-J1-PDC patient-derived ovarian carcinoma cell line growth inhibition [AhR]
Conditions: for IC50: curve of first compound; for viability, T/C: stronger effect = lower value
Source text: Multicellular complex tumor spheroid response to aryl hydrocarbon receptor antagonists in combination with a variety of drugs and investigational agents in selected tumor cell lines
The current study was undertaken to assess response to aryl hydrocarbon receptor antagonists in combination with standard-of-care drugs and investigational agents in solid tumor complex spheroid models. Complex spheroids include a stromal component modeled by human endothelial cells (HUVEC) and fibroblasts modeled by human mesenchymal stem cells (MSCs). The concentration ranges selected for each drug and investigational agent were based upon clinically achievable concentrations if the clinical Cmax of the agent was known.
Compounds. The drugs and investigational agents: BAY 2416964 (NSC825713), GNF351 (NSC835774), CH-223191 (NSC835775), CPI-455 (NSC825282), aza-TdCyd (NSC777586), decitabine (NSC127716), belinostat (NSC758774), entinostat (NSC756642), pevonedistat (NSC761192), tazemetostat (NSC777109), talazoparib (NSC765396), olaparib (NSC753686), selinexor (NSC780203), nedisertib (M3814, NSC802822), bortezomib (NSC756655), venetoclax (NSC766270), doxorubicin (NSC123127), elimusertib (BAY189344, NSC800525), ceralasertib (AZD6738, NSC777638), TAK-243 (NSC785004), alisertib (NSC759677), etoposide (NSC141540), topotecan (NSC609699), eribulin (NSC707389), gemcitabine (NSC613327), carboplatin (NSC241240), cisplatin (NSC119875), and SN-38 (NSC673596) were obtained from the National Cancer Institute (NCI) Developmental Therapeutics Program Chemical Repository (32). The FDA-approved anticancer drug set is available from the Developmental Therapeutics Program at https://dtp.cancer.gov/organization/dscb/obtaining/available plates.htm. […] The stock solutions were prepared in dimethyl sulfoxide (DMSO, Sigma-Aldrich, St. Louis, MO, cat. D2650), except for the platinum compounds which were prepared in saline (Quality Biological, Gaithersburg, MD, cat. 114-055-101), at 800-fold the tested concentration and stored at -70 degrees C prior to their use. All drugs and investigational agents were tested over a range starting from a high concentration at or near the clinical Cmax and decreasing in half-log increments. If the clinical Cmax for an agent had not been determined, the highest concentration tested was 10 microM (Table 1).
Cell Culture. All cells were maintained in an incubator at 37 degrees C and 5% CO2 with 95% humidity. The PDC lines were cultured according to standard operating procedures established by the NCI PDMR (https://pdmr.cancer.gov). Briefly, all PDCs were thawed and cultured in Matrigel-coated flasks prepared with a working solution of 1X Ham's F-12 nutrient mix, without supplementation (Invitrogen, Waltham, MA, cat. 11765054), 100 U/mL penicillin-streptomycin (Invitrogen, cat. 15140122), and 2.5% Matrigel (Corning Inc., Corning, NY, cat. 354248) for the first three passages. All PDCs were cultured in complete DMEM/F-12 media containing advanced DMEM/F-12 (Invitrogen, cat. 12634028), 4.9% defined fetal bovine serum, heat inactivated (HyClone Laboratories Inc., Logan, UT, cat. SH30070.03HI), 389 ng/mL hydrocortisone (Sigma-Aldrich, cat. H4001), 9.7 ng/mL human EGF recombinant protein (Invitrogen, cat. PHG0313), 23.4 microg/mL adenine (Sigma-Aldrich, cat. A2786), 97.3 U/mL penicillin-streptomycin (Invitrogen, cat. 15140122), 1.9 mM L-glutamine (Invitrogen, cat. 25030081), and 9.7 microM Y-27632 dihydrochloride (Tocris Bioscience, Bristol, United Kingdom, cat. 1254). The PDCs were cultured in complete DMEM/F12 media without 10 microM Y-27632 dihydrochloride for at least two passages prior to the screen. The established cell lines NCI-H1341 and […] were cultured in DMEM/F-12, HEPES (Invitrogen, cat. 11330032), 5% defined fetal bovine serum (HyClone Laboratories Inc., cat. SH30070.03), ITS premix universal culture supplement [insulin (5 microg/mL), transferrin (5 microg/mL), and selenious acid (5 ng/mL)] […]

[1] = second compound 0.1 µM, first compound 0.0316 µM
[2] = second compound 0.1 µM, first compound 0.1 µM
[3] = second compound 0.1 µM, first compound 0.316 µM
[4] = second compound 0.1 µM, first compound 1 µM
[5] = second compound 0.1 µM, first compound 3.16 µM
[6] = second compound 0.1 µM, first compound 10 µM
[7] = second compound 0.316 µM, first compound 0.0316 µM
[8] = second compound 0.316 µM, first compound 0.1 µM
[9] = second compound 0.316 µM, first compound 0.316 µM
[10] = second compound 0.316 µM, first compound 1 µM
[11] = second compound 0.316 µM, first compound 3.16 µM
[12] = second compound 0.316 µM, first compound 10 µM
[13] = second compound 1 µM, first compound 0.0316 µM
[14] = second compound 1 µM, first compound 0.1 µM
[15] = second compound 1 µM, first compound 0.316 µM
[16] = second compound 1 µM, first compound 1 µM
[17] = second compound 1 µM, first compound 3.16 µM
[18] = second compound 1 µM, first compound 10 µM
[19] = second compound 3.16 µM, first compound 0.0316 µM
[20] = second compound 3.16 µM, first compound 0.1 µM
[21] = second compound 3.16 µM, first compound 0.316 µM
[22] = second compound 3.16 µM, first compound 1 µM
[23] = second compound 3.16 µM, first compound 3.16 µM
[24] = second compound 3.16 µM, first compound 10 µM
[25] = second compound 10 µM, first compound 0.0316 µM
[26] = second compound 10 µM, first compound 0.1 µM
[27] = second compound 10 µM, first compound 0.316 µM
[28] = second compound 10 µM, first compound 1 µM
[29] = second compound 10 µM, first compound 3.16 µM
[30] = second compound 10 µM, first compound 10 µM
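Wherever viability, T/C is given: compound exposure lasted 7 days; 100% = DMSO vehicle control growth.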

`CC(C)CC(NC(=O)C(Cc1ccccc1)NC(=O)c1cnccn1)B(O)O` (stereo not given) + CC(CO)NC(=O)c1cc(-c2ccc(Cl)cc2)nn(-c2cnn(C)c2)c1=O showed an IC50 (second compound 0.1 µM) of 5 nM, an IC50 (second compound 0.316 µM) of 4.57 nM and an IC50 (second compound 1 µM) of 5.43 nM. The IC50 (second compound 3.16 µM) was 4.7 nM, the IC50 (second compound 10 µM) was 5.22 nM and the viability, T/C (second compound 0.1 µM, first compound 0.000949 µM) was 91.6%. For the same molecule, the viability, T/C (second compound 0.1 µM, first compound 0.003 µM) was 88.4%, the viability, T/C (second compound 0.1 µM, first compound 0.00949 µM) was 1.95% and the viability, T/C (second compound 0.1 µM, first compound 0.03 µM) was 0.49%. It also gave a viability, T/C (second compound 0.1 µM, first compound 0.0949 µM) of 0.12%, a viability, T/C (second compound 0.1 µM, first compound 0.3 µM) of 0.33% and a viability, T/C (second compound 0.316 µM, first compound 0.000949 µM) of 106%. The viability, T/C (second compound 0.316 µM, first compound 0.003 µM) was 77.9%, the viability, T/C (second compound 0.316 µM, first compound 0.00949 µM) was 1.51% and the viability, T/C (second compound 0.316 µM, first compound 0.03 µM) was 2.26%. It also gave a viability, T/C (second compound 0.316 µM, first compound 0.0949 µM) of 0.2%, a viability, T/C (second compound 0.316 µM, first compound 0.3 µM) of 0.8% and a viability, T/C (second compound 1 µM, first compound 0.000949 µM) of 105%. For the same molecule, the viability, T/C (second compound 1 µM, first compound 0.003 µM) was 99.7%, the viability, T/C (second compound 1 µM, first compound 0.00949 µM) was 3.31% and the viability, T/C (second compound 1 µM, first compound 0.03 µM) was 0.19%. The viability, T/C (second compound 1 µM, first compound 0.0949 µM) was 0.15%, the viability, T/C (second compound 1 µM, first compound 0.3 µM) was 0.27% and the viability, T/C (second compound 3.16 µM, first compound 0.000949 µM) was 85.7%. It also gave a viability, T/C (second compound 3.16 µM, first compound 0.003 µM) of 81%, a viability, T/C (second compound 3.16 µM, first compound 0.00949 µM) of 0.92% and a viability, T/C (second compound 3.16 µM, first compound 0.03 µM) of 2.07%. The viability, T/C (second compound 3.16 µM, first compound 0.0949 µM) was 1.26%, the viability, T/C (second compound 3.16 µM, first compound 0.3 µM) was 1.55% and the viability, T/C (second compound 10 µM, first compound 0.000949 µM) was 99.6%. It also gave a viability, T/C (second compound 10 µM, first compound 0.003 µM) of 94.2%, a viability, T/C (second compound 10 µM, first compound 0.00949 µM) of 2.36% and a viability, T/C (second compound 10 µM, first compound 0.03 µM) of 0.3%. It also gave a viability, T/C (second compound 10 µM, first compound 0.0949 µM) of 0.55% and a viability, T/C (second compound 10 µM, first compound 0.3 µM) of 0.95%.

In the case of `COc1cc(Nc2ncc3c(n2)-c2ccc(Cl)cc2C(c2c(F)cccc2OC)=NC3)ccc1C(=O)O` + CC(CO)NC(=O)c1cc(-c2ccc(Cl)cc2)nn(-c2cnn(C)c2)c1=O, the IC50 (second compound 0.1 µM) is reported as > 10000 nM, the IC50 (second compound 0.316 µM) is reported as > 10000 nM and the IC50 (second compound 1 µM) is reported as > 10000 nM. The IC50 (second compound 3.16 µM) was > 10000 nM, the IC50 (second compound 10 µM) was > 10000 nM and the viability, T/C [1] was 86%. For the same molecule, the viability, T/C [2] was 70.6%, the viability, T/C [3] was 66% and the viability, T/C [4] was 66.5%. The viability, T/C [5] was 61.3%, the viability, T/C [6] was 52.6% and the viability, T/C [7] was 88.8%. It also gave a viability, T/C [8] of 73.4%, a viability, T/C [9] of 59% and a viability, T/C [10] of 62.2%. The viability, T/C [11] was 55.2%, the viability, T/C [12] was 49.4% and the viability, T/C [13] was 95.7%. The viability, T/C [14] was 69.3%, the viability, T/C [15] was 73.4% and the viability, T/C [16] was 64.9%. The viability, T/C [17] was 55.8%, the viability, T/C [18] was 49.5% and the viability, T/C [19] was 79.9%. For the same molecule, the viability, T/C [20] was 71.2%, the viability, T/C [21] was 70.2% and the viability, T/C [22] was 65.7%. For the same molecule, the viability, T/C [23] was 54%, the viability, T/C [24] was 60.9% and the viability, T/C [25] was 88.5%. The viability, T/C [26] was 80.8%, the viability, T/C [27] was 66% and the viability, T/C [28] was 71.3%. For the same molecule, the viability, T/C [29] was 56.7% and the viability, T/C [30] was 55.1%.

In the case of `O=C(C=Cc1cccc(S(=O)(=O)Nc2ccccc2)c1)NO` + CC(CO)NC(=O)c1cc(-c2ccc(Cl)cc2)nn(-c2cnn(C)c2)c1=O, the IC50 (second compound 0.1 µM) is reported as 1180 nM, the IC50 (second compound 0.316 µM) is reported as 1280 nM and the IC50 (second compound 1 µM) is reported as 1470 nM. It also gave an IC50 (second compound 3.16 µM) of 1190 nM, an IC50 (second compound 10 µM) of 1080 nM and a viability, T/C [1] of 96.6%. The viability, T/C [2] was 88.9%, the viability, T/C [3] was 75.1% and the viability, T/C [4] was 53.6%. It also gave a viability, T/C [5] of 27.9%, a viability, T/C [6] of 3.75% and a viability, T/C [7] of 94%. The viability, T/C [8] was 91.2%, the viability, T/C [9] was 80.6% and the viability, T/C [10] was 56.2%. It also gave a viability, T/C [11] of 25.7%, a viability, T/C [12] of 3.23% and a viability, T/C [13] of 105%. The viability, T/C [14] was 96.8%, the viability, T/C [15] was 88% and the viability, T/C [16] was 63.6%. It also gave a viability, T/C [17] of 24.9%, a viability, T/C [18] of 2.84% and a viability, T/C [19] of 98.7%. It also gave a viability, T/C [20] of 93.7%, a viability, T/C [21] of 74.1% and a viability, T/C [22] of 54.1%. The viability, T/C [23] was 28.1%, the viability, T/C [24] was 3.83% and the viability, T/C [25] was 105%. It also gave a viability, T/C [26] of 104%, a viability, T/C [27] of 75.8% and a viability, T/C [28] of 53%. The viability, T/C [29] was 24.3% and the viability, T/C [30] was 4.22%.
